Each structure is given as a SMILES string. Read-outs that look alike come from different tables or passages of the source.

The series in a line: Open-label single-dose PK study in participants with hepatic impairment and normal hepatic function. The following applies: GeoMean, single 1.2 mg oral dose softgel capsules; for Cmax / AUC(0-inf) / AUC(0-t) / Tmax / Vd/F: human, in vivo, po, 1.2 mg; for Vd/F: read-out: Vz/F. The series is classed as in vivo, human. Here is the method: In an open-label, parallel group study to evaluate the PK, safety, and tolerability of Compound I, a single 1.2 mg oral dose of softgel capsules was administered to participants with hepatic impairment and in participants with normal hepatic function. Part 1 of the study comprised participants with moderate hepatic impairment (as determined by the Child-Pugh classifications; Class B (7 to 9 points)) and participants with normal hepatic function assigned to Cohorts 1 and 2, respectively. After Cohort 1 had been completely enrolled, participants with normal hepatic function (Cohort 2) were matched to Cohort 1 participants with respect to sex, mean age (10 years) and mean body mass index (BMI; 20%).
On Day 1, participants in Cohorts 1 and 2 received a single oral dose of 1.2 mg Compound I softgel capsules in the morning. Serial blood samples for PK analysis were collected through 168 hours post dose.

Setting [1] is: Cohort 1: moderate hepatic impairment, N 8.
Setting [2] is: Cohort 2: normal hepatic function, N 7.
The mark [3] stands for this setting: Cohort 2: normal hepatic function, N 8.

Consider `C[C@H](CC[C@](C)(O)C(F)(F)F)[C@H]1CC[C@H]2[C@@H]3CC=C4C[C@@](C)(O)CC[C@]4(C)[C@H]3CC[C@]12C` [Compound I], for which, under setting [1], the CLz/F was determined as 5.5 L/h; the tlast is 53.9 h; the area under the curve AUC(0-inf) (in general, total exposure, with the tail of the curve extrapolated) turned out to be 218 ng·h/mL; the area under the curve AUC(0-t) (commonly exposure summed from dosing to a finite time, without extrapolation to infinity) amounted to 188 ng·h/mL. For the same compound, under setting [1], the Tmax (usually the time at which the peak concentration occurs) amounted to 3.69 h and the Vd/F is 153 L. Under setting [2], the CLz/F worked out at 4.71 L/h, the AUC(0-inf) is 255 ng·h/mL, the exposure AUC(0-t) stood at 238 ng·h/mL and the Vd/F is 151 L. Besides, under setting [3], the tlast was 64.3 h; the Cmax (in general, the peak of the concentration-time curve) was 15.7 ng/mL; the Tmax stood at 3.99 h. For the setting “Cohort 1: moderate hepatic impairment (Child-Pugh Class B), N 8”, this compound displayed a Cmax of 12.2 ng/mL.
